We go through 11 molecules from patent publication US5716797A, “Stable two-part reagent for the measurement of creatine kinase activity” (Wako Pure Chemical Industries, Ltd., priority 1995, dated 1998).

Where two headings read alike, the source gives them in different places.

In data set [1] the target is T1, creatine kinase (CK) in human serum (Homo sapiens, UniProt P06732).
T1 construct: Five fresh human serum samples were used; from tissue; host or cells: fresh human serum
The data set can be described thus: Inhibitory effect of oxidized products of SH compounds on CK activity (HK/G6PDH UV method, NAC 26 mM as reactivator). The format is biochemical. As to conditions: for CK activity value / CK activity value, Average: 5 mM SH compound oxidized product; for CK activity value: NAC 26 mM, 37° C.; for CK activity value, Average: average of 5 samples; for activity at 5000 µM: read-out: CK activity, relative value. As to the method:
Investigation on the inhibitory effect of oxidized products of SH compounds on CK activity
Thus, oxidized products of the SH compounds, respectively, were obtained.
NAC (26 mM) as CK reactivator, each 5 mM of SH compound oxidized product obtained above, 2.6 mM of ADP, 3.9 u/ml of HK (available from Oriental Yeast Co., Ltd.), 8.0 u/ml of G6PDH (available from Oriental Yeast Co., Ltd.), 2.6 mM of NADP, 21 mM of glucose, 10 mM of magnesium acetate, 6.5 mM of AMP, 0.013 mM of APSA, 0.1% (w/v) of sodium azide and 2 mM of EDTA-2Na were dissolved in 128 mM imidazole-acetate buffer (pH 6.7). The thus obtained solutions were adjusted to pH 6.7 with sodium hydroxide to obtain enzyme solutions.
An enzyme solution containing no SH compound oxidized product was prepared as a control standard solution.
(§1) Five fresh human serum samples were used.
(§2) To 8 μl of each sample was added 320 μl of each enzyme solution, followed by preincubation for 5 minutes. Then, 80 μl of the substrate solution was added to initiate the reaction and the change of absorbance per minute was measured for 3 minutes from 2 minutes after the addition of the substrate solution. The CK activity value was calculated from the molecular extinction coefficient of the NADPH produced.
(§3) As a measuring apparatus, an Autoanalyzer Hitachi Model 7150 was used, and the measurement was carried out at 37° C. by use of dual wavelength (λ1 =405 nm, λ2 =340 nm).
Tables 2 and 3 show the CK activity values of the 5 samples in each case and the average thereof.

The subject of data set [2] is creatine kinase (CK) in human serum. The experiment in a line: CK activity measured with enzyme solutions containing SH compounds as CK reactivator, fresh and after 1 month of storage (Example 1 / Comparative Example 1). Type of data set: biochemical. To be noted: for CK activity value / CK activity value, Average: TG 100, 2ME 26, 2MES 26, NAC 26, L-cysteine 6.5, GSH 12, TDG 5, DTT 6.5 mM; for CK activity value, Average: average of 5 samples; for CK activity, relative value: NAC just after preparation = 100%. As to the method: The resulting solution was adjusted to pH 6.7 with sodium hydroxide and stored at a predetermined temperature for a predetermined period. The thus obtained solution were used as enzyme solutions.
as §1, §2, §3
Enzyme solutions were prepared in the same manner as in Example 1 by use of the same reagents as in Example 1 except for using a predetermined concentration(s) of one or two SH compounds properly selected from the above-mentioned CK reactivators, in place of the CK reactivator(s) used in Example 1.
CK activity was measured in the same manner as in Example 1.

The mark [3] stands for this setting: average with enzyme solution containing no SH compound oxidized product = 100%, 5 mM oxidized product.
Where [4] appears, read: enzyme solution stored at 10° C. for 1 month.
The mark [5] stands for this setting: enzyme solution stored at 20° C. for 1 month.

T1 sequence (P06732 whole entry): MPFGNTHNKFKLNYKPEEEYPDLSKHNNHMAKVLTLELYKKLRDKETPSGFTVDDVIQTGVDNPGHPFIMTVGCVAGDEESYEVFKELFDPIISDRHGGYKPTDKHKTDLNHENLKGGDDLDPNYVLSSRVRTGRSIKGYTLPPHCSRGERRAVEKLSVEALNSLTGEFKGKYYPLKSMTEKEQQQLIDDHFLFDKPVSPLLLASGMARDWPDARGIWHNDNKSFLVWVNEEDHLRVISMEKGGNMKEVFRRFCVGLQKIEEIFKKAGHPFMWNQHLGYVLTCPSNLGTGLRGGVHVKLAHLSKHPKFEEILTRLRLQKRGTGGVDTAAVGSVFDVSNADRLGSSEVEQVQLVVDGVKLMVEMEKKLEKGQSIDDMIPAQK

As to `O[C@@H]1CSSC[C@H]1O` (relative stereo) [DTT oxidized product], the “inhibition of CK activity by oxidized product” value (shortened to “inhibition of CK activity”) in data set [1] (5 mM oxidized product) is recorded as “hardly inhibited CK activity”. For the same molecule, the CK activity value worked out at 150 IU/l in data set [1] (Sample 1 (fresh human serum)); 407 IU/l in data set [1] (Sample 2); 108 IU/l in data set [1] (Sample 3); 319 IU/l in data set [1] (Sample 4); 99 IU/l in data set [1] (Sample 5). Moreover, the “CK activity value, Average” value in data set [1] was 216 IU/l. In data set [1] (setting [3]), the activity at 5000 µM was determined as 95.9%.

Turning to `O=c1ccnc(SSc2nccc(=O)[nH]2)[nH]1` [2-Thiouracil oxidized product], the “inhibition of CK activity” value in data set [1] (5 mM oxidized product) was “hardly inhibited CK activity”. The CK activity value is 143 IU/l in data set [1] (Sample 1 (fresh human serum)); 407 IU/l in data set [1] (Sample 2); 106 IU/l in data set [1] (Sample 3); 314 IU/l in data set [1] (Sample 4); 97 IU/l in data set [1] (Sample 5). The “CK activity value, Average” value in data set [1] worked out at 213 IU/l. Further, the activity at 5000 µM in data set [1] (setting [3]) was 94.6%.

As for `OCCSSCCO` [2ME oxidized product], in data set [1] (5 mM oxidized product), the “inhibition of CK activity” value is recorded as “hardly inhibited CK activity”. Also, the CK activity value in data set [1] (Sample 1 (fresh human serum)) is on record as 155 IU/l; in data set [1] (Sample 2), 427 IU/l; in data set [1] (Sample 3), 113 IU/l; in data set [1] (Sample 4), 332 IU/l; in data set [1] (Sample 5) it was 101 IU/l. Moreover, the “CK activity value, Average” value in data set [1] was 226 IU/l. For the same molecule, the activity at 5000 µM in data set [1] amounted to 100%.

For `O=S(=O)(O)CCSSCCS(=O)(=O)O` [2MES oxidized product], the “inhibition of CK activity” value in data set [1] (5 mM oxidized product) is reported as “hardly inhibited CK activity”. Further, the CK activity value in data set [1] (Sample 1 (fresh human serum)) is 155 IU/l; in data set [1] (Sample 2), 418 IU/l; in data set [1] (Sample 3), 114 IU/l; in data set [1] (Sample 4), 335 IU/l; in data set [1] (Sample 5), 98 IU/l. Also, the “CK activity value, Average” value in data set [1] amounted to 224 IU/l. In addition, the activity at 5000 µM in data set [1] (setting [3]) amounted to 99.3%.

Consider `Nc1cc(O)nc(SSc2nc(N)cc(O)n2)n1` [AHMP oxidized product], for which, in data set [1] (5 mM oxidized product), the “inhibition of CK activity” value is listed as “hardly inhibited CK activity”. Moreover, the CK activity value in data set [1] (Sample 1 (fresh human serum)) came out at 161 IU/l; in data set [1] (Sample 2) it was 407 IU/l; in data set [1] (Sample 3), 106 IU/l; in data set [1] (Sample 4), 322 IU/l; in data set [1] (Sample 5), 97 IU/l. For the same molecule, the “CK activity value, Average” value in data set [1] was found to be 217 IU/l. Moreover, the activity at 5000 µM in data set [1] (setting [3]) is 96%.

On to `Nc1nc(SSc2nc(N)nc3c2ncn3[C@@H]2O[C@H](CO)[C@@H](O)[C@H]2O)c2ncn([C@@H]3O[C@H](CO)[C@@H](O)[C@H]3O)c2n1` [AMPR oxidized product], for which the CK activity value worked out at 0 IU/l in data set [1] (Sample 1 (fresh human serum)); 1 IU/l in data set [1] (Sample 2); 0 IU/l in data set [1] (Sample 3); 1 IU/l in data set [1] (Sample 4); 0 IU/l in data set [1] (Sample 5). The “CK activity value, Average” value in data set [1] was found to be 0 IU/l. The activity at 5000 µM in data set [1] (setting [3]) was 0.2%.

For the molecule `OC[C@H]1O[C@@H](SS[C@@H]2O[C@H](CO)[C@@H](O)[C@H](O)[C@H]2O)[C@H](O)[C@@H](O)[C@@H]1O` [TDG oxidized product], the “inhibition of CK activity” value in data set [1] (5 mM oxidized product) was “hardly inhibited CK activity”. Further, the CK activity value came to 136 IU/l in data set [1] (Sample 1 (fresh human serum)); 388 IU/l in data set [1] (Sample 2); 102 IU/l in data set [1] (Sample 3); 302 IU/l in data set [1] (Sample 4); 90 IU/l in data set [1] (Sample 5). For the same molecule, in data set [1], the “CK activity value, Average” value turned out to be 204 IU/l. Moreover, the activity at 5000 µM in data set [1] (setting [3]) came to 90.2%.

For the molecule `O.O.OC[C@H]1O[C@@H](S)[C@H](O)[C@@H](O)[C@@H]1O.[Na].[Na]` [TDG, 1-thio-β-D-glucose disodium salt dihydrate], the “retaining CK-reactivating ability for a long period of time in an aqueous solution” value in data set [2] is listed as “incapable of retaining CK-reactivating ability in a solution for a long period of time”. Also, the CK activity value in data set [2] (Sample 1, enzyme solution stored at 10° C. for 1 month) is on record as 0 IU/l; in data set [2] (Sample 1, enzyme solution stored at 20° C. for 1 month), 0 IU/l; in data set [2] (Sample 2, enzyme solution stored at 10° C. for 1 month) it was 3 IU/l; in data set [2] (Sample 2, enzyme solution stored at 20° C. for 1 month), 4 IU/l; in data set [2] (Sample 3, enzyme solution stored at 10° C. for 1 month), 1 IU/l; in data set [2] (Sample 3, enzyme solution stored at 20° C. for 1 month), 2 IU/l. In addition, the CK activity value in data set [2] (Sample 4, enzyme solution stored at 10° C. for 1 month) stood at 0 IU/l; in data set [2] (Sample 4, enzyme solution stored at 20° C. for 1 month), 0 IU/l; in data set [2] (Sample 5, enzyme solution stored at 10° C. for 1 month) it was 0 IU/l; in data set [2] (Sample 5, enzyme solution stored at 20° C. for 1 month) it was 0 IU/l. Moreover, the “CK activity value, Average” value in data set [2] (setting [4]) and in data set [2] (setting [5]) was 1 IU/l each time. For the same molecule, the “CK activity, relative value” in data set [2] (setting [4]) came to 0.4%; in data set [2] (setting [5]) it was 0.6%.

In the case of `OCC(O)CSSCC(O)CO` (centres unmarked) [TG oxidized product], in data set [1] (5 mM oxidized product), the “inhibition of CK activity” value is recorded as “hardly inhibited CK activity”. Also, the CK activity value came out at 153 IU/l in data set [1] (Sample 1 (fresh human serum)); 422 IU/l in data set [1] (Sample 2); 112 IU/l in data set [1] (Sample 3); 333 IU/l in data set [1] (Sample 4); 106 IU/l in data set [1] (Sample 5). Moreover, the “CK activity value, Average” value in data set [1] is 226 IU/l. For the same molecule, the activity at 5000 µM in data set [1] (setting [3]) was 100%.

Take `c1ccc(SSc2ccccc2)cc1` [Thiophenol oxidized product]: the CK activity value is 73 IU/l in data set [1] (Sample 1 (fresh human serum)); 180 IU/l in data set [1] (Sample 2); 55 IU/l in data set [1] (Sample 3); 139 IU/l in data set [1] (Sample 4); 50 IU/l in data set [1] (Sample 5). Besides, the “CK activity value, Average” value in data set [1] amounted to 99 IU/l. Besides, in data set [1], the activity at 5000 µM is 44.1%.

As for Mercapto-succinic acid, the CK activity value turned out to be 122 IU/l in data set [1] (Sample 1 (fresh human serum)); 330 IU/l in data set [1] (Sample 2); 98 IU/l in data set [1] (Sample 3); 285 IU/l in data set [1] (Sample 4); 80 IU/l in data set [1] (Sample 5). Besides, the “CK activity value, Average” value in data set [1] was 183 IU/l. Moreover, the “CK activity, relative value” in data set [1] (setting [3]) is 81.0%.
